*1 amine or outer side, *2 acyl side, *3 side chain or, on linkers, in order; H or OH if unused. Where a SMILES comes first, the peptide text is derived from it. Side-chain parts run from the residue outwards. [ ]: non-standard residue; d: D form. The star is where a group is joined. C18 diacid = O=C(O)CCCCCCCCCCCCCCCCC(=O)*; γGlu = O=C(O)[C@H](CCC(=O)[*:2])N[*:1]; Nle = CCCC[C@H](N)C(=O)O; Aib = CC(C)(N)C(=O)O

In one series the target is T1, human GIP receptor (Homo sapiens, UniProt P48546).
T1 construct: expressed in transfected cells; host or cells: BHK (parent line BHKTS13), BHK CRE luc2P hGIPR clone #5
T1 sequence (P48546 22-466): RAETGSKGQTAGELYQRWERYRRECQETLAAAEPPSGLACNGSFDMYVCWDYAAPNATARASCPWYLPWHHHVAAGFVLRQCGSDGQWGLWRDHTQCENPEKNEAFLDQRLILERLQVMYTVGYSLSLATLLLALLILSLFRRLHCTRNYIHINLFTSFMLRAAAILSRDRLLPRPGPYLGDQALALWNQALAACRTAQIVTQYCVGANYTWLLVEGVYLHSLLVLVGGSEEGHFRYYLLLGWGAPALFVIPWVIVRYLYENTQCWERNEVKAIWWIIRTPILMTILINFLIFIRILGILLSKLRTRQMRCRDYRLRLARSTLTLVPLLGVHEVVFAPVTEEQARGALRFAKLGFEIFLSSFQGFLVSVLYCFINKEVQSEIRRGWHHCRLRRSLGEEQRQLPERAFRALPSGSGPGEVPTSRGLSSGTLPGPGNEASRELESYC
Kind of series: In vitro potency (CRE luciferase; whole cells), BHK CRE luc2P hGIPR. In kind it is cell-based. The note with it: 0.2% HSA. The gist of the method:
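BHK clones carrying a CRE luciferase element, each transfected with one human receptor, were seeded at 5000 cells/well overnight. Compounds were diluted in buffer with 1% ovalbumin and 0.1% Pluronic F-68, with or without human serum albumin. Luminescence was read after steadylite plus; non-linear log(agonist)-response fit, averaged over at least two replicates.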

Series [1] can be described thus: Pharmacokinetic study in minipigs, terminal half-life after i.v. administration. The note with it: female, Göttingen, minipig, plasma, iv, 5 nmol/kg; read-out: t1/2 (hours) harmonic mean (converted). The class given is in vivo.
Description: This is done in a pharmacokinetic (PK) study, where the terminal half-life of the derivative in question is determined. By terminal half-life is generally meant the period of time it takes to halve a certain plasma concentration, measured after the initial distribution phase.
Female Göttingen minipigs were obtained from Ellegaard Göttingen Minipigs (Dalmose, Denmark) approximately 7-14 months of age and weighing from approximately 16-35 kg were used in the studies. The minipigs were housed individually and fed restrictedly once daily with SDS minipig diet (Special Diets Services, Essex, UK).
After at 3 weeks of acclimatisation two permanent central venous catheters were implanted in vena cava caudalis in each animal. The animals were allowed 1 week recovery after the surgery, and were then used for repeated pharmacokinetic studies with a suitable wash-out period between successive derivative dosing.
Blood samples (for example 0.8 ml) were collected in EDTA buffer (8 mM) and then centrifuged at 4° C. and 1942G for 10 minutes.
Individual plasma concentration-time profiles were analysed by a non-compartmental model in Phoenix WnNonLin ver. […] (Pharsight Inc., Mountain View, Calif., USA), and the resulting terminal half-lives (harmonic mean) determined.

As for `CCCC[C@H](NC(=O)[C@H](C)NC(=O)[C@@H](NC(=O)[C@H](CO)NC(=O)[C@H](Cc1ccc(O)cc1)NC(=O)[C@H](CC(=O)O)NC(=O)[C@H](CO)NC(=O)[C@@H](NC(=O)[C@H](Cc1ccccc1)NC(=O)[C@@H](NC(=O)CNC(=O)[C@H](CCC(=O)O)NC(=O)[C@H](C)NC(=O)[C@@H](Cc1ccc(O)cc1)NC(C)=O)[C@@H](C)O)[C@@H](C)CC)[C@@H](C)CC)C(=O)N[C@@H](CC(=O)O)C(=O)N[C@@H](CCCCN)C(=O)N[C@H](C(=O)N[C@@H](CCCNC(=N)N)C(=O)N[C@@H](CCC(N)=O)C(=O)N[C@@H](CCC(N)=O)C(=O)N[C@@H](CC(=O)O)C(=O)N[C@@H](Cc1ccccc1)C(=O)N[C@H](C(=O)N[C@@H](CCCCNC(=O)CC[C@H](NC(=O)CC[C@H](NC(=O)CC[C@H](NC(=O)CCCCCCCCCCCCCCCCC(=O)O)C(=O)O)C(=O)O)C(=O)O)C(=O)N[C@@H](Cc1c[nH]c2ccccc12)C(=O)N[C@@H](CC(C)C)C(=O)N[C@@H](CC(C)C)C(=O)N[C@@H](C)C(=O)N[C@@H](CCC(N)=O)C(=O)N[C@@H](CCCCN)C(=O)NCC(=O)O)C(C)C)[C@@H](C)CC` [Compound 7, N{1}-acetyl, N{Epsilon-24}-[(4S)-4-carboxy-4-[[(4S)-4-carboxy-4-[[(4S)-4-carboxy-4-(17-carboxyheptadecanoylamino)butanoyl]amino]butanoyl]amino]butanoyl]-[D-Tyr1,Nle14,Arg18, Lys24]-hGIP(1-31)], on human GIP receptor, the concentration for a half-maximal effect (EC50) was found to be 0.0489 nM. Also, the half-life in series [1] is 84 h.
In the same order, the values of `CCCC[C@H](NC(=O)[C@H](C)NC(=O)[C@@H](NC(=O)[C@H](CO)NC(=O)[C@H](Cc1ccc(O)cc1)NC(=O)[C@H](CC(=O)O)NC(=O)[C@H](CO)NC(=O)[C@@H](NC(=O)[C@H](Cc1ccccc1)NC(=O)[C@@H](NC(=O)CNC(=O)[C@H](CCC(=O)O)NC(=O)C(C)(C)NC(=O)[C@@H](N)Cc1ccc(O)cc1)[C@@H](C)O)[C@@H](C)CC)[C@@H](C)CC)C(=O)N[C@@H](CC(=O)O)C(=O)N[C@@H](CCCCN)C(=O)N[C@H](C(=O)N[C@@H](CCCNC(=N)N)C(=O)N[C@@H](CCC(N)=O)C(=O)NC(C)(C)C(=O)N[C@@H](CC(=O)O)C(=O)N[C@@H](Cc1ccccc1)C(=O)N[C@H](C(=O)N[C@@H](CCCCNC(=O)CC[C@H](NC(=O)CC[C@H](NC(=O)CC[C@H](NC(=O)CCCCCCCCCCCCCCCCC(=O)O)C(=O)O)C(=O)O)C(=O)O)C(=O)N[C@@H](Cc1c[nH]c2ccccc12)C(=O)N[C@@H](CC(C)C)C(=O)N[C@@H](CC(C)C)C(=O)N[C@@H](C)C(=O)N[C@@H](CCC(N)=O)C(=O)N[C@@H](CCCCN)C(=O)NCC(=O)O)C(C)C)[C@@H](C)CC` [Compound 11, N{Epsilon-24}-[(4S)-4-carboxy-4-[[(4S)-4-carboxy-4-[[(4S)-4-carboxy-4-(17-carboxyheptadecanoylamino)butanoyl]amino]butanoyl]amino]butanoyl]-[Aib2,Nle14,Arg18,Aib20,Lys24]-hGIP(1-31)] (H-Y[Aib]EGTFISDYSIA[Nle]DKIRQ[Aib]DFVK([γGlu-γGlu-γGlu-C18 diacid])WLLAQKG-OH) are 0.0094 nM and 89 h.
In the case of `CCCC[C@H](NC(=O)[C@H](C)NC(=O)[C@@H](NC(=O)[C@H](CO)NC(=O)[C@H](Cc1ccc(O)cc1)NC(=O)[C@H](CC(=O)O)NC(=O)[C@H](CO)NC(=O)[C@@H](NC(=O)[C@H](Cc1ccccc1)NC(=O)[C@@H](NC(=O)CNC(=O)[C@H](CCC(=O)O)NC(=O)[C@H](C)NC(=O)[C@@H](Cc1ccc(O)cc1)NC(C)=O)[C@@H](C)O)[C@@H](C)CC)[C@@H](C)CC)C(=O)N[C@@H](CC(=O)O)C(=O)N[C@@H](CCCCN)C(=O)N[C@H](C(=O)N[C@@H](CCCNC(=N)N)C(=O)N[C@@H](CCC(N)=O)C(=O)N[C@@H](CCC(N)=O)C(=O)N[C@@H](CC(=O)O)C(=O)N[C@@H](Cc1ccccc1)C(=O)N[C@H](C(=O)N[C@@H](CCCCNC(=O)COCCOCCNC(=O)COCCOCCNC(=O)CC[C@H](NC(=O)CCCCCCCCCCCCCCCCC(=O)O)C(=O)O)C(=O)N[C@@H](Cc1c[nH]c2ccccc12)C(=O)N[C@@H](CC(C)C)C(=O)N[C@@H](CC(C)C)C(=O)N[C@@H](C)C(=O)N[C@@H](CCC(N)=O)C(=O)N[C@@H](CCCCN)C(=O)NCC(=O)O)C(C)C)[C@@H](C)CC` [Compound 15, N{1}-acetyl,N{Epsilon-24}-[2-[2-[2-[[2-[2-[2-[[(4S)-4-carboxy-4-(17-carboxyheptadecanoylamino)butanoyl]amino]ethoxy]ethoxy]acetyl]amino]ethoxy]ethoxy]acetyl]-[D-Tyr1,Nle14,Arg18,Lys24]-hGIP(1-31)], the EC50 on human GIP receptor was 0.0304 nM. In series [1], the half-life was 81 h.
On human GIP receptor, `CCCC[C@H](NC(=O)[C@H](C)NC(=O)[C@@H](NC(=O)[C@H](CO)NC(=O)[C@H](Cc1ccc(O)cc1)NC(=O)[C@H](CC(=O)O)NC(=O)[C@H](CO)NC(=O)[C@@H](NC(=O)[C@H](Cc1ccccc1)NC(=O)[C@@H](NC(=O)CNC(=O)[C@H](CCC(=O)O)NC(=O)[C@H](C)NC(=O)[C@@H](Cc1ccc(O)cc1)NC(C)=O)[C@@H](C)O)[C@@H](C)CC)[C@@H](C)CC)C(=O)N[C@@H](CC(=O)O)C(=O)N[C@@H](CCCCN)C(=O)N[C@H](C(=O)N[C@@H](CCCNC(=N)N)C(=O)N[C@@H](CCC(N)=O)C(=O)N[C@@H](CCC(N)=O)C(=O)N[C@@H](CC(=O)O)C(=O)N[C@@H](Cc1ccccc1)C(=O)N[C@H](C(=O)N[C@@H](CCCCNC(=O)COCCOCCNC(=O)COCCOCCNC(=O)CC[C@H](NC(=O)CC[C@H](NC(=O)CC[C@H](NC(=O)CCCCCCCCCCCCCCCCC(=O)O)C(=O)O)C(=O)O)C(=O)O)C(=O)N[C@@H](Cc1c[nH]c2ccccc12)C(=O)N[C@@H](CC(C)C)C(=O)N[C@@H](CC(C)C)C(=O)N[C@@H](C)C(=O)N[C@@H](CCC(N)=O)C(=O)N[C@@H](CCCCN)C(=O)NCC(=O)O)C(C)C)[C@@H](C)CC` [Compound 17, N{1}-acetyl,N{Epsilon-24}-[2-[2-[2-[[2-[2-[2-[[(4S)-4-carboxy-4-[[(4S)-4-carboxy-4-[[(4S)-4-carboxy-4-(17-carboxyheptadecanoylamino)butanoyl]amino]butanoyl]amino]-butanoyl]amino]ethoxy]ethoxy]acetyl]amino]ethoxy]ethoxy]acetyl]-[D-Tyr1,Nle14,Arg18,Lys24]-hGIP(1-31)] returned a concentration for a half-maximal effect (EC50) of 0.0431 nM. The half-life in series [1] was 88 h.

For the origin of these results see patent publication US10604555B2, “GIP derivatives and uses thereof” (priority 2018, dated 2020).
